How the values were obtained:
24-hydroxylase mRNA = 24-hydroxylase mRNA expression in CL-8 cells; type: cell-based; settings: 1α,25-dihydroxyvitamin D3 10^−9 M, 5 hours (FIG. 4)
Protocol: CL-8 cells were grown as above and the peptide of SEQ ID NO.1 was either not added to the cells, or added to the cells at a concentration of either 100 or 500 ng/ml. Cells were grown for a further 5 hours, and RNA was harvested using methods described above and expression levels of 24-hydroxylase were determined in each sample using methods described above. […]

1α-hydroxylase mRNA = 1α-hydroxylase mRNA expression in CL-8 cells (real-time quantitative PCR); type: cell-based, human
Protocol: Cell culture, RNA preparation and cDNA synthesis: CL-8 cells (1.6×10^6 cells) were placed in 60 mm culture dish, and cultured for 48 hours in 5% FCS D-MEM/HamF-12(1:1) medium. This medium was exchanged to FCS free, 0.5 mM Ca defined medium [D-MEM/HamF-12 (13:87), Insulin 5 μg/ml, Transferrin 5 μg/ml, Na2SeO3 5 ng/ml, T3 0.37 nM, EGF 2.5 ng/ml, Hydrocortisone 1 nM]. After 24 hours, the peptide of SEQ ID NO.1 (100 ng/ml or 500 ng/ml) or PTH 100 nM were added and cultured for 5 hours. After treatment, the total cellular contents of each well were used for RNA extraction and reverse transcription (RT). RNA was isolated using ISOGEN (Nippon Gene, Japan) according to the manufacturer's protocol. The purified RNA was redissolved in 10 μl RNase-free water and used for cDNA synthesis by RT. The RT was performed in a 20 μl reaction mixture containing 10 mM Tris buffer, pH8.3, 50 mM KCl, 5 mM MgCl2, 1 mM each of dATP, dGTP, dCTP and dTTP, 20 U of RNase inhibitor, 1 μM Reverse primer and 5 U of AMV reverse transcriptase. The reaction mixture was incubated at 30° C. for 10 min, 55° C. for 15 min, 95° C. for 5 min followed by 5° C. for 5 min.
Real-time quantitative PCR: mRNA was quantitated for human 1α-OHase gene and β-actin. Theses gene were amplified using primers of oligo synthesis DNA (Takara, Japan). […] Quantitation of mRNA was performed using Applied Biosystems GeneAmp 5700 sequence detection system with SYBR Green methods.
In order to study the effect of the peptide of SEQ ID No. 1 on the regulation of 1α-hydoxylase mRNA expression, CL-8 cells were grown with and without the peptide of SEQ ID No. 1 and the effects of the peptide on 1α-hydroxylase were quantified. […]
PTH and the peptide of SEQ ID NO.1 induce the expression of 1α-hydroxylase mRNA. […] Cells were grown for a further 5 hours, and RNA was harvested and expression levels of 1α-hydroxylase were determined in each sample using standard Northern blotting or RT-PCR procedures.

C=C1/C(=C\C=C2/CCC[C@]3(C)[C@@H]([C@H](C)CCCC(C)(C)O)CC[C@@H]23)C[C@@H](O)C[C@@H]1O [1α,25-dihydroxyvitamin D3]
levels of 24-hydroxylase mRNA (24-hydroxylase mRNA): significant increase

O=S(=O)(NCCNC/C=C/c1ccc(Br)cc1)c1cccc2cnccc12 [H-89]
effect of H-89 on the inducing effects of PTH on 1α-hydroxylase mRNA expression (1α-hydroxylase mRNA; H-89 10 uM with PTH 100 nmol, 5 hours (FIG. 2)): inhibited
effect of H-89 on the stimulatory effects of the peptide of SEQ ID NO.1 on 1α-hydroxylase mRNA expression (1α-hydroxylase mRNA; H-89 10 uM with peptide 100 or 500 ng/ml, 5 hours): did not inhibit

B1: parathyroid hormone (peptide, UniProt P01270 32-115, looked up)
Parathyroid hormone: SVSEIQLMHNLGKHLNSMERVEWLRKKLQDVHNFVALGAPLAPRDAGSQRPRKKEDNVLVESHEKSLGEADKADVNVLTKAKSQ
modifications: Parathyroid hormone
notes: parathyroid hormone, comparator inducer of 1α-hydroxylase mRNA acting via a PKA-dependent pathway
induction of the expression of 1α-hydroxylase mRNA (1α-hydroxylase mRNA): induce

Source: patent publication US20030186891A1, “Compositions and methods for treatment of vitamin D deficiency” (priority 2002, published 2003)
